According to PubChem BioAssay (NCI):
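Abbreviation: GI50, concentration required for 50% inhibition of growth. TGI marks complete inhibition of growth.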

Experiments:
Experiment in all cases: inhibition of tumour cell growth, NCI panel, 384-well format
HT29 colon = tested on: HT29 colon
T-47D breast = tested on: T-47D breast
HS 578T breast = tested on: HS 578T breast
ACHN renal = tested on: ACHN renal
SR leukemia = tested on: SR leukemia
UACC-257 melanoma = tested on: UACC-257 melanoma
BT-549 breast = tested on: BT-549 breast
NCI-H460 NSCLC = tested on: NCI-H460 NSCLC
NCI-H322M lung = tested on: NCI-H322M lung
SK-MEL-5 melanoma = tested on: SK-MEL-5 melanoma
SF-295 CNS = tested on: SF-295 CNS
MALME-3M melanoma = tested on: MALME-3M melanoma
OVCAR-5 ovarian = tested on: OVCAR-5 ovarian
NCI-H23 lung = tested on: NCI-H23 lung
PC-3 prostate = tested on: PC-3 prostate
M14 melanoma = tested on: M14 melanoma
KM12 colon = tested on: KM12 colon
MOLT-4 leukemia = tested on: MOLT-4 leukemia
EKVX NSCLC = tested on: EKVX NSCLC
HCC-2998 colon = tested on: HCC-2998 colon
RPMI-8226 leukemia = tested on: RPMI-8226 leukemia
COLO 205 colon = tested on: COLO 205 colon
OVCAR-4 ovarian = tested on: OVCAR-4 ovarian
IGROV1 ovarian = tested on: IGROV1 ovarian
TK-10 renal = tested on: TK-10 renal
HL-60(TB) leukemia = tested on: HL-60(TB) leukemia
U251 glioblastoma = tested on: U251 glioblastoma
786-0 renal = tested on: 786-0 renal
CAKI-1 renal = tested on: CAKI-1 renal
DU-145 prostate = tested on: DU-145 prostate
NCI-H226 lung = tested on: NCI-H226 lung
MDA-MB-435 melanoma = tested on: MDA-MB-435 melanoma
SF-539 CNS = tested on: SF-539 CNS
HOP-62 NSCLC = tested on: HOP-62 NSCLC
A549 NSCLC = tested on: A549 NSCLC
OVCAR-8 ovarian = tested on: OVCAR-8 ovarian
UACC-62 melanoma = tested on: UACC-62 melanoma
A498 renal = tested on: A498 renal
HOP-92 NSCLC = tested on: HOP-92 NSCLC
HCT-15 colon = tested on: HCT-15 colon
SK-OV-3 ovarian = tested on: SK-OV-3 ovarian
SK-MEL-28 melanoma = tested on: SK-MEL-28 melanoma
MDA-MB-468 breast = tested on: MDA-MB-468 breast
CCRF-CEM leukemia = tested on: CCRF-CEM leukemia
SN12C renal = tested on: SN12C renal
SNB-75 CNS = tested on: SNB-75 CNS
OVCAR-3 ovarian = tested on: OVCAR-3 ovarian
RXF 393 renal = tested on: RXF 393 renal
SW-620 colon = tested on: SW-620 colon
SNB-19 CNS = tested on: SNB-19 CNS
NCI/ADR-RES ovarian = tested on: NCI/ADR-RES ovarian
SF-268 CNS = tested on: SF-268 CNS
NCI-H522 lung = tested on: NCI-H522 lung
MDA-MB-231 breast = tested on: MDA-MB-231 breast
MCF7 breast = tested on: MCF7 breast

Nc1nc(N)c(N=O)c(OCC2CCCCC2)n1
GI50 (HT29 colon): 19.3 µM
TGI (HT29 colon): 90.6 µM
GI50 (T-47D breast): 6.41 µM
TGI (T-47D breast): 33.1 µM
GI50 (HS 578T breast): 4.02 µM
TGI (HS 578T breast): 16.2 µM
GI50 (ACHN renal): 27.3 µM
TGI (ACHN renal): 85.9 µM
GI50 (SR leukemia): 3.46 µM
TGI (SR leukemia): 8.82 µM
GI50 (UACC-257 melanoma): 23.6 µM
TGI (UACC-257 melanoma): > 100 µM
GI50 (BT-549 breast): 5.63 µM
TGI (BT-549 breast): 26.1 µM
GI50 (NCI-H460 NSCLC): 4.94 µM
TGI (NCI-H460 NSCLC): 26.7 µM
GI50 (NCI-H322M lung): 24.6 µM
TGI (NCI-H322M lung): > 100 µM
GI50 (SK-MEL-5 melanoma): 17.1 µM
TGI (SK-MEL-5 melanoma): 46.5 µM
GI50 (SF-295 CNS): 26 µM
TGI (SF-295 CNS): 87 µM
GI50 (MALME-3M melanoma): 8.62 µM
TGI (MALME-3M melanoma): 41.9 µM
GI50 (OVCAR-5 ovarian): 17.2 µM
TGI (OVCAR-5 ovarian): 82.2 µM
GI50 (NCI-H23 lung): 15.6 µM
TGI (NCI-H23 lung): 46.6 µM
GI50 (PC-3 prostate): 7.78 µM
TGI (PC-3 prostate): 49.4 µM
GI50 (M14 melanoma): 11.4 µM
TGI (M14 melanoma): 79 µM
GI50 (KM12 colon): 21.4 µM
TGI (KM12 colon): > 100 µM
GI50 (MOLT-4 leukemia): 5.83 µM
TGI (MOLT-4 leukemia): 17.9 µM
GI50 (EKVX NSCLC): 22.3 µM
TGI (EKVX NSCLC): 70.3 µM
GI50 (HCC-2998 colon): 15.1 µM
TGI (HCC-2998 colon): > 100 µM
GI50 (RPMI-8226 leukemia): 4.88 µM
TGI (RPMI-8226 leukemia): 13.9 µM
GI50 (COLO 205 colon): 23.6 µM
TGI (COLO 205 colon): 56 µM
GI50 (OVCAR-4 ovarian): 19.2 µM
TGI (OVCAR-4 ovarian): 49.3 µM
GI50 (IGROV1 ovarian): 4.21 µM
TGI (IGROV1 ovarian): 18.1 µM
GI50 (TK-10 renal): 7.67 µM
TGI (TK-10 renal): 30 µM
GI50 (HL-60(TB) leukemia): 15 µM
TGI (HL-60(TB) leukemia): 32.8 µM
GI50 (U251 glioblastoma): 17.2 µM
TGI (U251 glioblastoma): 58.8 µM
GI50 (786-0 renal): 23.9 µM
TGI (786-0 renal): > 100 µM
GI50 (CAKI-1 renal): 8.55 µM
TGI (CAKI-1 renal): 31.6 µM
GI50 (DU-145 prostate): 13.2 µM
TGI (DU-145 prostate): > 100 µM
GI50 (NCI-H226 lung): 10.9 µM
TGI (NCI-H226 lung): 54.1 µM
GI50 (MDA-MB-435 melanoma): 25.4 µM
TGI (MDA-MB-435 melanoma): > 100 µM
GI50 (SF-539 CNS): 18.5 µM
TGI (SF-539 CNS): 67.1 µM
GI50 (HOP-62 NSCLC): 4.57 µM
TGI (HOP-62 NSCLC): 24.7 µM
GI50 (A549 NSCLC): 17.6 µM
TGI (A549 NSCLC): 64.1 µM
GI50 (OVCAR-8 ovarian): 32.9 µM
TGI (OVCAR-8 ovarian): > 100 µM
GI50 (UACC-62 melanoma): 14.5 µM
TGI (UACC-62 melanoma): 38.7 µM
GI50 (A498 renal): 5.34 µM
TGI (A498 renal): 25.3 µM
GI50 (HOP-92 NSCLC): 9.41 µM
TGI (HOP-92 NSCLC): 36.9 µM
GI50 (HCT-15 colon): 5.06 µM
TGI (HCT-15 colon): > 100 µM
GI50 (SK-OV-3 ovarian): 15 µM
TGI (SK-OV-3 ovarian): 37.6 µM
GI50 (SK-MEL-28 melanoma): 22.3 µM
TGI (SK-MEL-28 melanoma): 97.1 µM
GI50 (MDA-MB-468 breast): 3.29 µM
TGI (MDA-MB-468 breast): 10.8 µM
GI50 (CCRF-CEM leukemia): 4.9 µM
TGI (CCRF-CEM leukemia): 17 µM
GI50 (SN12C renal): 13.6 µM
TGI (SN12C renal): 57.1 µM
GI50 (SNB-75 CNS): 4.38 µM
TGI (SNB-75 CNS): 19.7 µM
GI50 (OVCAR-3 ovarian): 17.1 µM
TGI (OVCAR-3 ovarian): > 100 µM
GI50 (RXF 393 renal): 5.32 µM
TGI (RXF 393 renal): 27.1 µM
GI50 (SW-620 colon): 45.9 µM
TGI (SW-620 colon): > 100 µM
GI50 (SNB-19 CNS): 31.1 µM
TGI (SNB-19 CNS): > 100 µM
GI50 (NCI/ADR-RES ovarian): 30.6 µM
TGI (NCI/ADR-RES ovarian): > 100 µM
GI50 (SF-268 CNS): 21.2 µM
TGI (SF-268 CNS): 78.7 µM
GI50 (NCI-H522 lung): 5.92 µM
TGI (NCI-H522 lung): 25.1 µM
GI50 (MDA-MB-231 breast): 10.9 µM
TGI (MDA-MB-231 breast): 66 µM
GI50 (MCF7 breast): 5.22 µM
TGI (MCF7 breast): 91.6 µM
